Among the data in PubChem BioAssay (NCI) are GI50 and TGI values, retold here.

“And” between values parts separate entries of the source, which are not always exact repeats. Equal values may be shown once.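 Interpolation was linear, between the two tested concentrations surrounding the appropriate level; five concentrations were tested over 48 hours in 96-well plates. Abbreviation: GI50, concentration required for 50% inhibition of growth. TGI marks complete inhibition of growth.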 Bounds are passed on as bounds.

Some test systems named below: U251 CNS; 786-0 renal; HOP-62 NSCLC; NCI-H460 lung; MDA-MB-231 breast; UACC-257 melanoma; ACHN renal; RPMI-8226 leukemia; HT29 colon; SK-MEL-28 melanoma.
Holding throughout (experiment): growth of human tumour cells (NCI), 48 h

As to `CCOC(=O)c1c(C(F)(F)F)n([O-])c2ccc(Cl)cc2[n+]1=O`, the GI50 was 1.75 µM in the assay with U251 CNS; 2.11 µM in the assay with 786-0 renal; 1.88 µM in the assay on HOP-62 NSCLC; 2.05 µM in the assay on NCI-H460 lung; 2.01 µM with MDA-MB-231 breast; 2.19 µM in the assay on UACC-257 melanoma. Moreover, the GI50 in the assay on ACHN renal was 1.69 µM; in the assay on RPMI-8226 leukemia, 2.07 µM; in the assay on HT29 colon, 1.9 µM; in the assay on SK-MEL-28 melanoma, 1.89 µM. The TGI in the assay with U251 CNS was 3.36 µM; in the assay with 786-0 renal, 3.71 µM; in the assay on HOP-62 NSCLC, 3.47 µM; with NCI-H460 lung, 3.99 µM; in the assay on MDA-MB-231 breast, 4.45 µM; in the assay on UACC-257 melanoma, 4.7 µM. Besides, the TGI stood at 3.14 µM with ACHN renal, 5.13 µM in the assay on RPMI-8226 leukemia, 3.83 µM in the assay on HT29 colon and 3.58 µM in the assay on SK-MEL-28 melanoma.
`O=C1NC(=O)C(N2CCc3ccccc32)=C1c1ccc(Cl)cc1`: the GI50 is over 25 µM in the assay on U251 CNS; over 10 µM in the assay with 786-0 renal; over 25 µM in the assay on HOP-62 NSCLC; over 25 µM in the assay on NCI-H460 lung; over 25 µM in the assay on MDA-MB-231 breast; over 25 µM in the assay with UACC-257 melanoma. Besides, the GI50 in the assay on ACHN renal, in the assay on RPMI-8226 leukemia, in the assay with HT29 colon and in the assay on SK-MEL-28 melanoma was over 25 µM each time. The TGI with U251 CNS is over 25 µM; with 786-0 renal, over 14.5 µM; in the assay with HOP-62 NSCLC, over 25 µM; in the assay with NCI-H460 lung, over 25 µM; in the assay with MDA-MB-231 breast, over 25 µM; with UACC-257 melanoma it was over 25 µM. The TGI in the assay with ACHN renal, in the assay on RPMI-8226 leukemia, in the assay on HT29 colon and in the assay with SK-MEL-28 melanoma was over 25 µM in each case.
As to `CC(=O)NC1CCCN(O)C(=O)/C=C(/C)CCOC(=O)C(NC(C)=O)CCCN(O)C(=O)/C=C(/C)CCOC(=O)C(NC(C)=O)CCCN(O)C(=O)/C=C(/C)CCOC1=O.[Fe]` (stereo not given), the GI50 in the assay with U251 CNS, with 786-0 renal, in the assay on HOP-62 NSCLC, in the assay with NCI-H460 lung, in the assay with MDA-MB-231 breast and with UACC-257 melanoma was over 100 µM throughout. Besides, the GI50 in the assay with ACHN renal, in the assay on RPMI-8226 leukemia, in the assay on HT29 colon and in the assay with SK-MEL-28 melanoma was over 100 µM throughout. Also, the TGI with U251 CNS, in the assay on 786-0 renal, in the assay on HOP-62 NSCLC, with NCI-H460 lung, with MDA-MB-231 breast and in the assay on UACC-257 melanoma was over 100 µM in each case. In addition, the TGI in the assay on ACHN renal, in the assay on RPMI-8226 leukemia, with HT29 colon and with SK-MEL-28 melanoma was over 100 µM throughout.
As for `Nc1cccc2c1CN(C1CCC(=O)NC1=O)C2=O` (stereo not given), the GI50 with U251 CNS, with 786-0 renal, with HOP-62 NSCLC, with NCI-H460 lung, in the assay on MDA-MB-231 breast and in the assay with UACC-257 melanoma was over 100 µM throughout. For the same compound, the GI50 in the assay with ACHN renal, in the assay on RPMI-8226 leukemia, in the assay on HT29 colon and in the assay with SK-MEL-28 melanoma was over 100 µM throughout. The TGI in the assay with U251 CNS, with 786-0 renal, in the assay with HOP-62 NSCLC, in the assay on NCI-H460 lung, in the assay with MDA-MB-231 breast and in the assay on UACC-257 melanoma was over 100 µM throughout. Further, the TGI in the assay on ACHN renal, in the assay on RPMI-8226 leukemia, in the assay on HT29 colon and in the assay with SK-MEL-28 melanoma was over 100 µM each time.
As to `Cc1ccc(-c2c3c(N)nc(-c4ccncc4)nc3nc3c2c(C)nn3-c2ccccc2)cc1`, the GI50 was 6.12 µM in the assay on U251 CNS; 12.4 µM in the assay on 786-0 renal; 0.647 µM in the assay with HOP-62 NSCLC; 6.5 µM in the assay on NCI-H460 lung; 4.51 µM in the assay on MDA-MB-231 breast; 13.3 µM in the assay on UACC-257 melanoma. The GI50 with ACHN renal is over 37.5 µM; with RPMI-8226 leukemia, 18.6 µM; in the assay on HT29 colon it was 11.5 µM; in the assay on SK-MEL-28 melanoma, 7.69 µM. Further, the TGI is 31.7 µM in the assay on U251 CNS; over 37.5 µM in the assay with 786-0 renal; 1.95 µM in the assay on HOP-62 NSCLC; 33.6 µM in the assay on NCI-H460 lung; 13.4 µM in the assay with MDA-MB-231 breast; over 37.5 µM with UACC-257 melanoma. In addition, the TGI in the assay on ACHN renal, in the assay with RPMI-8226 leukemia, in the assay with HT29 colon and with SK-MEL-28 melanoma was over 37.5 µM throughout.
On to `COc1cccc(C(C#N)NC23CC4CC(CC(C4)C2)C3)c1` (stereo not given), for which the TGI with U251 CNS, in the assay with 786-0 renal, in the assay with HOP-62 NSCLC, with NCI-H460 lung, in the assay with MDA-MB-231 breast and with UACC-257 melanoma was over 100 µM each time. For the same compound, the TGI with ACHN renal, in the assay on RPMI-8226 leukemia, in the assay on HT29 colon and with SK-MEL-28 melanoma was over 100 µM in each case.
With `O=C1c2ccccc2C(=O)c2c(NCCNCCO)ccc(NCCNCCO)c21`, the GI50 was 0.373 µM and 0.442 µM and 0.285 µM with U251 CNS; 0.757 µM and 1.69 µM and 1.18 µM with 786-0 renal; 0.422 µM and 0.473 µM and 0.509 µM in the assay with HOP-62 NSCLC; 0.127 µM and 0.158 µM and 0.189 µM in the assay with NCI-H460 lung; 1.56 µM and 1.63 µM and 1.52 µM in the assay with MDA-MB-231 breast; 4.72 µM and 6.86 µM and 6.63 µM with UACC-257 melanoma. In addition, the GI50 in the assay with ACHN renal was 2.05 µM and 0.967 µM and 1.39 µM; with RPMI-8226 leukemia it was 1.49 µM and 3.37 µM and 1.8 µM; with HT29 colon, 1.32 µM and 2.3 µM and 1.64 µM; in the assay on SK-MEL-28 melanoma it was 1.46 µM and 1.61 µM and 1.7 µM. Moreover, the TGI in the assay on U251 CNS is 5.18 µM and 6.64 µM and 2.96 µM; in the assay with 786-0 renal, 4.66 µM and 14.3 µM and 12.9 µM; in the assay with HOP-62 NSCLC, 4.19 µM and 3.82 µM and 4.76 µM; in the assay on NCI-H460 lung, 1.91 µM and 3.38 µM and 2.16 µM; with MDA-MB-231 breast, 5.85 µM and 6.54 µM and 4.47 µM; with UACC-257 melanoma, 14.2 µM and 27.9 µM and 24.7 µM. In addition, the TGI in the assay with ACHN renal was 49 µM and 13 µM and > 44.8 µM; in the assay on RPMI-8226 leukemia, 12.2 µM and 33 µM and 10.9 µM; in the assay on HT29 colon, 7.42 µM and 12.1 µM and 5.1 µM; with SK-MEL-28 melanoma, 3.14 µM and 3.87 µM and 5.01 µM.
`O=C(CCCCCNC1=CC(=O)c2ccccc2C1=O)NCCC[Te]c1ccccc1`: the GI50 was 0.356 µM with U251 CNS; 2 µM in the assay with 786-0 renal; 0.272 µM in the assay on HOP-62 NSCLC; 0.197 µM in the assay with NCI-H460 lung; 0.236 µM in the assay on MDA-MB-231 breast; 2.4 µM with UACC-257 melanoma. Also, the GI50 is 0.408 µM in the assay on ACHN renal, 0.291 µM in the assay with RPMI-8226 leukemia, 0.377 µM with HT29 colon and 1.21 µM in the assay on SK-MEL-28 melanoma. Also, the TGI in the assay with U251 CNS was 1.87 µM; in the assay on 786-0 renal, 4.17 µM; in the assay with HOP-62 NSCLC, 0.731 µM; in the assay on NCI-H460 lung it was 0.576 µM; in the assay on MDA-MB-231 breast, 0.606 µM; with UACC-257 melanoma, 6.33 µM. In addition, the TGI in the assay on ACHN renal stood at 1.49 µM; in the assay on RPMI-8226 leukemia, 1.04 µM; in the assay with HT29 colon it was 1.48 µM; in the assay on SK-MEL-28 melanoma, 3.34 µM.
